# Reference: US7972645B2, “Dioscorea extracts for enhancing immune system” (Academia Sinica, priority 2003, dated 2011)
# Test system: NF-κB-inducible ELAM-1 composite promoter
# Test: NF-κB-inducible ELAM-1 composite promoter reporter (SEAP) assay in transfected B16 melanoma cells
# Format: cell-based
# Details: Polymyxin B 400 U
# Method: Briefly, B16 melanoma cells were transfected with a vector carrying the human secreted embryonic alkaline phosphatase (SEAP) gene, whose expression is under the control of a NF-κB-inducible ELAM-1 composite promoter, using a standard method for reporter (SEAP) assay. B16 melanoma cells were transfected with the NF-kB-inducible reporter plasmid pNiFty-SEAP (InvivoGen) in the presence of lipofectin (Invitrogen) for 24 hours. The SEAP secreted into medium was measured according to the manufacturer's instructions (Phospha-Light™ System, Applied Biosystems).
# The transfected cells were then incubated with DsCE-I before the chemiluminescent reporter gene assays were conducted. It was known that LPS increased the activity of NF-κB and p38MAPK was involved in the LPS-induced activation. Therefore, LPS (0.1 μg/ml) was used as a positive control (Group A) and the corresponding […] was normalized as 100%. To illustrate the specificity, the effects of inhibitors of the LPS-induced activation were also examined. These inhibitors included SB203580 (“SB,” a p38MAPK inhibitor), PDTC (“PD,” a NF-κB inhibitor), and Polymyxin B (“PB,” an LPS-binding antibiotic). The solvent used to prepare the reagents was used as a negative control (Group J).
substance,measurement,setting,value
Polymyxin B,Inhibition of DsCE-I-induced activation (in words),DsCE-I 100 μg/ml,only partially inhibited
same,Inhibition of LPS-induced activation (in words),LPS 0.1 μg/ml,inhibited LPS-induced activation completely
